Legend:
[1] = Drug uptake in human PMNC assessed as increase in intracellular compound concentration by radiometric assay relative to control; type: ADME, cell-based
[2] = Ratio of cellular uptake in alveolar macrophages to plasma of healthy human at 14 doses of […], twice daily; type: ADME, organism-based
[3] = Ratio of intracellular to extracellular drug uptake in alveolar macrophages of New Zealand white rabbit infected with Mycobacterium bovis at 1 ug/ml in presence of 100% serum; type: ADME, cell-based, Oryctolagus cuniculus; conditions: macrophage
[4] = Ratio of cellular uptake in alveolar macrophages to plasma of healthy human
[5] = Ratio of intracellular to extracellular drug uptake in RBC of New Zealand white rabbit infected with Mycobacterium bovis at 1 ug/ml; type: ADME, cell-based, Oryctolagus cuniculus; conditions: erythrocyte
[6] = Ratio of intracellular to extracellular drug uptake in alveolar macrophages of New Zealand white rabbit infected with Mycobacterium bovis at 1 ug/ml; type: ADME, cell-based, Oryctolagus cuniculus; conditions: macrophage
[7] = Ratio of intracellular to extracellular drug uptake in alveolar macrophages of New Zealand white rabbit infected with Mycobacterium bovis at 1 ug/ml in presence of 5% serum; type: ADME, cell-based, Oryctolagus cuniculus; conditions: macrophage
[8] = Ratio of intracellular to extracellular cellular uptake in PMNC of patient with hematological malignancies at 200 mg administered 3 to 4 times a day measured by liquid chromatography-tandem mass spectroscopy; conditions: human, in vivo
PBMC [9] = experiment: Cellular uptake in PBMC of patient with hematological malignancies at 200 mg administered 3 to 4 times a day measured by liquid chromatography-tandem mass spectroscopy; conditions: human, in vivo
PBMC [10] = experiment: Ratio of intracellular to extracellular cellular uptake in PBMC of patient with hematological malignancies at 200 mg administered 3 to 4 times a day measured by liquid chromatography-tandem mass spectroscopy; conditions: human, in vivo
[11] = Ratio of intracellular to extracellular cellular uptake in RBC of patient with hematological malignancies at 200 mg administered 3 to 4 times a day measured by liquid chromatography-tandem mass spectroscopy; conditions: human, in vivo
[12] = Cellular uptake in PMNC of patient with hematological malignancies at 200 mg administered 3 to 4 times a day measured by liquid chromatography-tandem mass spectroscopy; conditions: human, in vivo
[13] = Cellular uptake in RBC of patient with hematological malignancies at 200 mg administered 3 to 4 times a day measured by liquid chromatography-tandem mass spectroscopy; conditions: human, in vivo
Plasma = experiment: Drug uptake in plasma of patient with hematological malignancies at 200 mg administered 3 to 4 times a day measured by liquid chromatography-tandem mass spectroscopy; conditions: human, in vivo

In the case of OC(Cn1cncn1)(Cn1cncn1)c1ccc(F)cc1F [FLUCONAZOLE], the “fold change (FC)” value [1] is reported as 2.2.
Work on CCC(C)n1ncn(-c2ccc(N3CCN(c4ccc(OCC5COC(Cn6cncn6)(c6ccc(Cl)cc6Cl)O5)cc4)CC3)cc2)c1=O (stereo not given) [ITRACONAZOLE] yielded a Kp [2] of 44.3, a Ratio [3] of 3 and a Kp [4] of 27.3. It also gave a Ratio [5] of 90.4, a Ratio [6] of 87.9 and a Ratio [7] of 18.
With CC[C@@H]([C@H](C)O)n1ncn(-c2ccc(N3CCN(c4ccc(OC[C@@H]5CO[C@@](Cn6cncn6)(c6ccc(F)cc6F)C5)cc4)CC3)cc2)c1=O [POSACONAZOLE] the Ratio [8] was 7.66, the Drug uptake (PBMC [9]) was 12764 ng/mL and the Ratio (PBMC [10]) was 22.5. It also gave a Ratio [11] of 0.09, a Drug uptake [12] of 4031 ng/mL and a Drug uptake [13] of 50.8 ng/mL. The Drug uptake (Plasma) was 603.2 ng/mL.
In the case of C[C@@H](c1ncncc1F)[C@](O)(Cn1cncn1)c1ccc(F)cc1F [VORICONAZOLE], the “fold change (FC)” value [1] is reported as 8.5.
